One data set relates to P. falciparum Dd2 strain. The data set is described as follows: Malstat assay, asexual blood stages, CQ-resistant strain Dd2. In kind it is cell-based. The conditions noted are these: Plasmodium falciparum, DD2; ring stage parasites, 72 h, Malstat; read-out: IC50 (µM) CQ-Resistant Strain Dd2. As to the method:
(§1) Three P. falciparum strains were used for compound testing; a strain sensitive to chloroquine (CQ) 3D7, CQ-resistant strain Dd2 and P. falciparum gametocyte producing NF54 strain. The 3D7 and Dd2 strains were used to investigate the effect of the compounds on asexual blood stage replication. They were cultured in RPMI 1640/HEPES medium (Gibco, Thermo Scientific, Waltham, MA, USA) containing 10 µg/mL gentamicin (Gibco Thermo Scientific, Waltham, MA, USA,), 50 µg/mL hypoxanthine (Sigma-Aldrich, St. Louis, MO, USA), 0.5% v/v Albumax II (Gibco, Thermo Scientific, Waltham, MA, USA) and 5% hematocrit. Cultures were maintained at 37 °C using a gas mixture containing 5% CO2, 5% O2 and 90% N2. […] To obtain highly synchronized cultures, parasite cultures consisting mainly of ring stages were centrifuged, the pellet was resuspended in 10 mL of 5% w/v sorbitol/ddH20 and incubated for 10 min at room temperature. After washing the cells with RPMI to remove residual sorbitol, they were again cultivated, as described above. Erythrocyte concentrate and serum samples were obtained from the Department of Transfusion Medicine, University Hospital Aachen, Germany. The serum samples were mixed and pooled and donors were kept anonymous. The work with blood components from humans was approved by the Ethics commission of the RWTH University Hospital (EK 007/13).
(§2) The antiplasmodial effect of the compounds on P. falciparum asexual blood stage development was carried out using the Malstat assay, as described previously. Compounds dissolved in dimethyl sulfoxide (DMSO) were added to 1% ring stage P. falciparum 3D7 and Dd2 cultures (200 µL/well) in a 96-well plate in triplicate at final concentrations ranging from 100 µM to 0.78 µM. […] CQ at concentrations ranging from 500 nM to 4 nM was used as an internal control in the experiments, while parasites treated with 0.5% v/v DMSO served as the negative control. The parasites were cultured with the compounds for 72 h at 37 °C in the presence of the following gas combination: 5% O2, 5% CO2, and 90% N2. Afterwards, 20 µL of the incubated culture was removed and 100 µL of Malstat reagent (0.1% v/v Triton X-100, 1 g of L-lactate, 0.33 g Tris and 33 mg of 3-acetylpyridine adenine dinucleotide in 100 mL of distilled water, pH 9.0) was added in a new 96-well microtiter plate. Next, 20 µL mixture of NBT/Diaphorase (1:1; 1 mg/mL stock each) was added to the Malstat reaction and the parasite lactate dehydrogenase activity was then quantified by measuring the optical densities at 630 nm. IC50 values were then determined from variable-slope sigmoidal dose-response graphs using the GraphPad Prism program version 5 (GraphPad Software Inc., La Jolla, San Diego, CA, USA).

For data set [1], the system named is P. falciparum NF54 gametocytes. The data set is described as follows: Gametocyte toxicity test. The conditions noted are these: compound at IC50 concentration, 48 h treatment, then 7 d drug-free. In kind it is cell-based, Plasmodium falciparum. As to the method: as §1
P. falciparum NF54 parasites were cultured at high parasitemia to induce gametocyte formation. Once stage II gametocytes appeared, 1 mL of culture was aliquoted in triplicate in a 24-well plate with compounds at the respective IC50 and IC90 concentrations that was determined from Malstat assay. The gametocytes were again cultivated for 9 d with the daily replacement of medium. For the first 48 h of cultivation, the gametocytes were treated with test compounds, and subsequently compound free medium was used. On day 9, blood smears were prepared and stained with Giemsa and the gametocytemia was determined by counting the numbers of gametocytes stages IV and V in a total number of 1000 erythrocytes.
Figure 3 Effect of organosulfur compounds on gametocyte development. Cultures rich in stage II gametocyte were incubated with compounds at IC50 and IC90 concentrations for 2 d, and again cultivated for another 7 d with daily replacement of medium. The numbers of stage IV and V gametocytes were determined from Giemsa smears and normalized to 0.5% v/v DMSO treatment which served as negative control (set to 100%). Epoxomicin (Epoxo) at 60 nM served as positive control.

In the next data set the test system is P. falciparum 3D7 strain. Kind of data set: Malstat assay, asexual blood stages, CQ-sensitive strain 3D7. In kind it is cell-based. To be noted: Plasmodium falciparum, 3D7. The protocol: as §1, §2
Data set [2] concerns non-infected erythrocytes. The data set is described as follows: Hemolytic assay. It is filed as cell-based, human. To be noted: IC50 and IC90 concentrations, 48 h, 37 °C, compared with 0.5% v/v DMSO. The protocol:
Since the malaria parasite replicates in the red blood cell, we determined if the compounds have an effect on non-infected erythrocytes using hemolytic assays. To this end, 1 mL of washed uninfected erythrocytes at 5% hematocrit in regular medium was plated in triplicate in a 96-well plate (200 µL/well) in the presence of compounds at IC50 and IC90 concentrations. Erythrocytes treated with 0.15% w/v saponin were used as lysis control and 0.5% v/v DMSO was used as the negative control. Following 48 h of incubation at 37 °C, the plate was centrifuged at 500× g for 2 min and 100 µL of the supernatant was transferred to another plate and the absorbance was measured at 550 nm with a spectrophotometer.
(§3) Figure 4 Hemolytic and cytotoxic effect of compounds. (a) Hemolytic effect of compounds. […] The absorbance of free hemoglobin was measured at OD550 nm in the supernatant and normalized to 0.15% w/v saponin (set to 100%), which served as positive control in the experiments. 0.5% v/v DMSO was used as negative control. (b) Cytotoxicity effect of compounds on Hela cells. The cells were plated in 96-well microtiter plates and cultured overnight at 37 °C. The following day, the old medium was removed and 100 µL of fresh medium containing serially diluted compounds in corresponding wells at final concentrations ranging from 100 µM to 0.8 µM was added and the culture was incubated for 72 h. After incubation, the medium was replaced by 100 µL fresh drug-free medium and 20 µL MTT (5 mg/mL) was added in each well and incubated for 3 h at 37 °C. After 3 h, the MTT preparation was then removed from each well and 100 µL solubilization solution was added. Plates were then placed on a rotator at about 500 rpm at RT until the formazan precipitate was completely resuspended and the OD was measured at 450 nm. The data are representative of three independent experiments.

Data set [3] is described as follows: MTT cytotoxicity assay, Hela cells. In kind it is cell-based. The conditions noted are these: human, Hela cells (human cervical cancer cell line). The protocol: The MTT [3-(4,5-dimethylthiazol-2-yl)-2,5-diphenyltetrazolium bromide] assay was performed using the human cervical cancer cell (Hela) line and the hematologic malignancy human erythroleukemia (HEL) cell line to determine if the compounds were toxic (loss of viability) against human cells. MTT is taken up by viable cells and converted by mitochondrial dehydrogenases to a violet formazan product that cannot diffuse through cell membranes, and therefore crystallizes in viable cells. The adherent Hela cells were plated in 96-well microtiter plates and cultured at 37 °C overnight. Compounds were added to the cultures in different serial concentrations in triplicate the next day, and the cells were incubated for 72 h. DMSO was used as the negative control at a final concentration of 0.5% v/v, and a concentration of 15% v/v DMSO which is toxic was added as the positive control. After 72 h of drug treatment, medium-containing drug was replaced with 100 µL fresh drug-free medium. Then, 20 µL MTT (5 mg/mL) was added to each well and incubated for 3 h at 37 °C. The medium was subsequently removed and 100 µL solubilization solution (5% w/v SDS, 0.1 M HCl in 100% vol. DMSO) was added and incubated for 30 min under rotation at room temperature to solubilize the formazan crystals.
For both cell lines, the optical density (OD) of the solution was measured at 550 nm. The OD-values of cultures treated with compounds were normalized to the OD-values of 0.5% v/v DMSO control (set to 100% viability for Hela or 1 for HEL cell line). IC50 values were calculated from MTT assays using Graphpad Prism (V9).
as §3
On the technique in general: Formazan colour is commonly taken as a measure of viable cells.

We go through one compound from paper PMC9785921, “Evaluation of Chiral Organosulfur Compounds on Their Activity against the Malaria Parasite Plasmodium falciparum” (Tropical Medicine and Infectious Disease, 2022).

By IC50 is commonly meant the concentration at which inhibition is half-maximal. What is called IC90 is the concentration needed for an effect of 90%. A word on the viability: it is the share of living cells, or the viability signal relative to a control. Take `CCOC(=O)C1=C(c2ccc(C)cc2)N=S(=O)(N2CCCCCC2)c2ccc(C)cc21` (stereo not shown) [Compound 17]: the IC50 in the data set on P. falciparum Dd2 strain stood at 4 ± 0.28 µM; in the data set on P. falciparum 3D7 strain (ring stage parasites, 72 h, Malstat (plasmodial LDH), read-out: IC50 (µM) CQ-Sensitive Strain 3D7) it was 2.6 ± 0.7 µM. The “reduction of mature gametocyte numbers” value in data set [1] is “about 50%”. Further, the IC90 in the data set with P. falciparum 3D7 strain (90% inhibitory concentration estimated from the IC50) is 23.4 µM. The hemolytic effect result in data set [2] is “no hemolytic effect”. Also, the viability at 72 h, 50 µM in data set [3] (50 µM) was > 60%. Besides, the viability at 72 h in data set [3] (about 25 µM) is > 90%.
